Source: EP0031104A1, “Thiazolidine compounds, processes for their preparation and pharmaceutical compositions containing them” (SANTEN PHARMACEUTICAL CO., LTD., priority 1979, dated 1981)
pIC50: −log10 of the molar value. Where two headings read alike, the source gives them in different places.

Columns and labels:
aldose reductase = target: T1, aldose reductase (Rattus norvegicus, UniProt P07943); assay: Aldose reductase inhibition (optical density at 340 nm, Kinoshita's method); assay type: biochemical; conditions: for IC50: aldose reductase purified from rat lenses, pH 6.2, DL glyceraldehyde, NADPH, read-out: IC50(M) Molar concentration of a compound producing 50% inhibition of aldose reductase
T1 construct: Aldose reductase is purified from rat lenses; from tissue; host or cells: rat lens
Method: Aldose reductase is purified from rat lenses according to the method of Hoyman et al. [J. Biol. Chem., 240, 877 (1965)]. Action of the compounds (I) of this invention is evaluated by measurement of optical density according to the J.H. Kinoshita's method [Invest.

Acute toxicity test = conditions: mouse, in vivo, iv
Method: The male ddy-std. strain mice (4 weeks of age, weighing 19-21g) were placed in a breeding room of constant temperature and humidity (23+1°C, 55+5%) and fed freely pellet diet (CE-2, Clea Japan, Inc.) and water ad. libitum for a week. The mice showing the normal growth were selected for the experiment.
Test compounds are dissolved in distilled water and administered (i.v.) in a dose of 0.5ml/20g body weight.

| Structure (SMILES) | IC50 (aldose reductase) | pIC50 (aldose reductase) | LD50 (Acute toxicity test; male ddy-std. strain mice, dissolved in distilled water) | LD50 (Acute toxicity test) |
| --- | --- | --- | --- | --- |
| O=C(O)CCCCCCCC(=O)N1C(c2cccc([N+](=O)[O-])c2)SC[C@H]1C(=O)O (stereo partly drawn) [compound 22] | 8.2e-10 M | – | – | – |
| O=C(O)[C@@H]1CSC(c2cccc([N+](=O)[O-])c2)N1C(=O)CCCCCCCC(=O)N1C(c2cccc([N+](=O)[O-])c2)SC[C@H]1C(=O)O (stereo partly drawn) [compound 47, (4R,4'R)-3,3'-(nonanedioyl)bis-[2-(3-nitrophenyl)-4-thiazolidinecarboxylic acid]] | – | 9.80 | 1000 to 1500 mg/kg | – |
| N#Cc1cccc(C2SC[C@@H](C(=O)O)N2C(=O)CCCCCCCCC(=O)N2C(c3cccc(C#N)c3)SC[C@H]2C(=O)O)c1 (stereo partly drawn) [compound 56] | 1.7e-09 M | – | – | 1000 to 1500 mg/kg |
| O=C(O)[C@@H]1CSC(c2cccc([N+](=O)[O-])c2)N1C(=O)CCCCCCCCC(=O)N1C(c2cccc([N+](=O)[O-])c2)SC[C@H]1C(=O)O (stereo partly drawn) [compound 57] | – | 8.27 | – | – |
